Assay results as given in US20260226073A1 (AURIGENE ONCOLOGY LIMITED, priority 2023, published 2026).

Experiments:
[1] = system: NFAT signaling pathway in Jurkat NFAT reporter cells; assay: Jurkat NFAT reporter assay; assay type: cell-based; conditions: Homo sapiens, 30 min with compound, then soluble anti-human CD3/CD28 antibody for 6 hours, luciferase readout, read-out: EC50 (Group)
Method: A human T lymphocyte Jurkat reporter cell line was further used to assess activation of the nuclear factor of activated T-cells (NFAT) signaling pathway by Cbl-b inhibitors. The reporter cell line is a genetically engineered Jurkat T cell line that expresses a luciferase reporter driven by an NFAT-response element (NFAT-RE). The Cbl-b inhibitor was incubated with 1×10^5 Jurkat NFAT reporter cells per well for 30 minutes. Subsequently, cells were stimulated with soluble anti-human CD3/CD28 antibody for 6 hours resulting in NFAT-RE-mediated luminescence. The bioluminescent signal is detected and quantified using Bio-Glo™ Luciferase Assay System. Readouts were reported as fold change over baseline. Here, baseline was the measurement obtained from Jurkat NFAT reporter cells stimulated with anti-CD3 antibody and anti-CD28 antibody, where the cells were not incubated with a Cbl-b inhibitor.

[2] = molecular target: T1, human recombinant CBL-b (human Biotin CBL-b recombinant protein a.a. 39-426) (Homo sapiens, UniProt Q13191); assay: Biochemical assay for CBL-b inhibition (ligand displacement TR-FRET); assay type: binding; conditions: 50 nM CBL-b, 0.3 μM Bodipy FL-Probe, read-out: IC50 (CBL-b inhibition, group)
T1 construct: human Biotin CBL-b recombinant protein a.a; 39-426; Biotin (biotinylated); made in house
T1 sequence (Q13191 39-426): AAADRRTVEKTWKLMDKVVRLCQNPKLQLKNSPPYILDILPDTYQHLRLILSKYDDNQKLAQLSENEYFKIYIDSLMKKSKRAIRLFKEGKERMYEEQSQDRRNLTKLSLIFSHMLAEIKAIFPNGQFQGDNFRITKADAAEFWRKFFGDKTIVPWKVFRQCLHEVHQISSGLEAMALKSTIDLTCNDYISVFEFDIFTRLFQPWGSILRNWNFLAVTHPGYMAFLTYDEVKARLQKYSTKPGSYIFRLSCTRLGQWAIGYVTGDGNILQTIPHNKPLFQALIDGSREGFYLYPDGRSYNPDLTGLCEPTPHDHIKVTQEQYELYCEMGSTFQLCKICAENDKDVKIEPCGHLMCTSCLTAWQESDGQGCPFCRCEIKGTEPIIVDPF
Method in brief: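 Ligand-displacement TR-FRET: 0.3 μM Bodipy FL probe competes with compound for 50 nM biotin-CBL-b (aa 39-426) after a 60 min RT compound pre-incubation; terbium-streptavidin detection, 60 min each step. Dose-response sigmoidal fitting gave IC50 and % maximum inhibition.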

Row | SMILES | EC50 [1] [nM] | IC50 [2] [nM]
1 | COc1cc(CN2CCC[C@H](C)C2)cc(N2Cc3ccc(C4(Cc5nncn5C)COC4)cc3C2=O)c1 [Compound 5, (S)-2-(3-Methoxy-5-((3-methylpiperidin-1-yl)methyl)phenyl)-6-(3-((4-methyl-4H-1,2,4-triazol-3-yl)methyl)oxetan-3-yl)isoindolin-1-one] | 1000 to 10000 | 80 to 300
2 | C[C@H]1CCCN(Cc2cc(C3CC3)cc(N3Cc4ccc(C5(Cc6nncn6C)COC5)cc4C3=O)c2)C1 [Compound 7, (S)-2-(3-Cyclopropyl-5-((3-methylpiperidin-1-yl)methyl)phenyl)-6-(3-((4-methyl-4H-1,2,4-triazol-3-yl)methyl)oxetan-3-yl)isoindolin-1-one] | 300 to 1000 | 80 to 300
3 | C[C@H]1CCCN(Cc2cccc(N3Cc4ccc(C5(Cc6nncn6C)COC5)cc4C3=O)c2)C1 [Compound 8, (S)-6-(3-((4-Methyl-4H-1,2,4-triazol-3-yl)methyl)oxetan-3-yl)-2-(3-((3-methyl-piperidin-1-yl)methyl)phenyl)isoindolin-1-one] | 1000 to 10000 | 300 to 5000
4 | C=Cc1cc(CN2CCC[C@H](C)C2)cc(N2Cc3ccc(C4(Cc5nncn5C)COC4)cc3C2=O)c1 [Compound 9, (S)-6-(3-((4-Methyl-4H-1,2,4-triazol-3-yl)methyl)oxetan-3-yl)-2-(3-((3-methyl-piperidin-1-yl)methyl)-5-vinylphenyl)isoindolin-1-one] | 300 to 1000 | 80 to 300
5 | C[C@H]1CCCN(Cc2cc(Br)cc(N3Cc4ccc(C5(Cc6nncn6C)COC5)cc4C3=O)c2)C1 [Compound 10, (S)-2-(3-Bromo-5-((3-methylpiperidin-1-yl)methyl)phenyl)-6-(3-((4-methyl-4H-1,2,4-triazol-3-yl)methyl)oxetan-3-yl)isoindolin-1-one] | < 300 | < 80
6 | Cn1cnnc1CC1(c2ccc3c(c2)C(=O)N(c2cc(CNCC4CC4)cc(C(F)(F)F)c2)C3)COC1 [Compound 13, 2-(3-(((Cyclopropylmethyl)amino)methyl)-5-(trifluoromethyl)phenyl)-6-(3-((4-methyl-4H-1,2,4-triazol-3-yl)methyl)oxetan-3-yl)isoindolin-1-one] | 1000 to 10000 | 80 to 300
7 | C[C@H]1CCCN(Cc2cc(N3CCCCC3)cc(N3Cc4ccc(C5(Cc6nncn6C)COC5)cc4C3=O)c2)C1 [Compound 14, (S)-6-(3-((4-Methyl-4H-1,2,4-triazol-3-yl)methyl)oxetan-3-yl)-2-(3-((3-methyl-piperidin-1-yl)methyl)-5-(piperidin-1-yl)phenyl)isoindolin-1-one] | 1000 to 10000 | 300 to 5000
8 | CC(C)c1cc(CN2CCC[C@H](C)C2)cc(N2Cc3ccc(C4(Cc5nncn5C)COC4)cc3C2=O)c1 [Compound 15, (S)-2-(3-Isopropyl-5-((3-methylpiperidin-1-yl)methyl)phenyl)-6-(3-((4-methyl-4H-1,2,4-triazol-3-yl)methyl)oxetan-3-yl)isoindolin-1-one] | 300 to 1000 | 80 to 300
9 | C[C@H]1CCCN(Cc2cc(N3Cc4ccc(C5(Cc6nncn6C)COC5)cc4C3=O)cc(C(C)(C)C)c2)C1 [Compound 16, (S)-2-(3-(tert-Butyl)-5-((3-methylpiperidin-1-yl)methyl)phenyl)-6-(3-((4-methyl-4H-1,2,4-triazol-3-yl)methyl)oxetan-3-yl)isoindolin-1-one] | 300 to 1000 | 80 to 300
10 | C[C@H]1CCCN(Cc2cc(N3Cc4ccc(C5(Cc6nncn6C)COC5)cc4C3=O)cc(C(F)(F)F)n2)C1 [Compound 17, (S)-6-(3-((4-Methyl-4H-1,2,4-triazol-3-yl)methyl)oxetan-3-yl)-2-(2-((3-methyl-piperidin-1-yl)methyl)-6-(trifluoromethyl)pyridin-4-yl)isoindolin-1-one] | 1000 to 10000 | 300 to 5000
11 | Cc1cc(CNCC2CC2)cc(N2Cc3ccc(C4(Cc5nncn5C)COC4)cc3C2=O)c1 [Compound 18, 2-(3-(((Cyclopropylmethyl)amino)methyl)-5-methylphenyl)-6-(3-((4-methyl-4H-1,2,4-triazol-3-yl)methyl)oxetan-3-yl)isoindolin-1-one] | 1000 to 10000 | < 80
12 | Cc1cc(CNCCC(F)(F)F)cc(N2Cc3ccc(C4(Cc5nncn5C)COC4)cc3C2=O)c1 [Compound 19, 6-(3-((4-Methyl-4H-1,2,4-triazol-3-yl)methyl)oxetan-3-yl)-2-(3-methyl-5-(((3,3,3-trifluoropropyl)amino)methyl)phenyl)isoindolin-1-one] | 300 to 1000 | < 80
13 | Cc1cc(CNCC2CC2(F)F)cc(N2Cc3ccc(C4(Cc5nncn5C)COC4)cc3C2=O)c1 (centres unmarked) [Compound 20, 2-(3-((((2,2-Difluorocyclopropyl)methyl)amino)methyl)-5-methylphenyl)-6-(3-((4-methyl-4H-1,2,4-triazol-3-yl)methyl)oxetan-3-yl)isoindolin-1-one] | 300 to 1000 | 80 to 300
14 | Cc1cc(N2Cc3ccc(C4(Cc5nncn5C)COC4)cc3C2=O)cc(CN2CCC[C@H](C)C2)n1 [Compound 23, (S)-6-(3-((4-Methyl-4H-1,2,4-triazol-3-yl)methyl)oxetan-3-yl)-2-(2-methyl-6-((3-methylpiperidin-1-yl)methyl)pyridin-4-yl)isoindolin-1-one] | 1000 to 10000 | 80 to 300
15 | Cc1cc(CN2CCC[C@H](C)C2)cc(N2Cc3ccc(C4(Cc5nncn5C)COC4)cc3C2=O)n1 [Compound 26, (S)-2-(6-Methyl-4-((3-methylpiperidin-1-yl)methyl)pyridin-2-yl)-6-(3-((4-methyl-4H-1,2,4-triazol-3-yl)methyl)oxetan-3-yl)isoindolin-1-one] | < 300 | < 80
16 | Cn1cnnc1CC1(c2ccc3c(c2)C(=O)N(c2cc(CN4CCC[C@H](C(F)(F)F)C4)cc(C(F)(F)F)n2)C3)COC1 [Compound 27, (S)-6-(3-((4-Methyl-4H-1,2,4-triazol-3-yl)methyl)oxetan-3-yl)-2-(6-(trifluoro-methyl)-4-((3-(trifluoromethyl)piperidin-1-yl)methyl)pyridin-2-yl)isoindolin-1-one] | < 300 | < 80
17 | CC1CN(Cc2cc(N3Cc4ccc(C5(Cc6nncn6C)COC5)cc4C3=O)nc(C(F)(F)F)c2)CCC1(F)F (centres unmarked) [Compound 28, 2-(4-((4,4-Difluoro-3-methylpiperidin-1-yl)methyl)-6-(trifluoromethyl)pyridin-2-yl)-6-(3-((4-methyl-4H-1,2,4-triazol-3-yl)methyl)oxetan-3-yl)isoindolin-1-one] | 300 to 1000 | 80 to 300
18 | Cn1cnnc1CC1(c2ccc3c(c2)C(=O)N(c2cc(CN4CCCC(C#N)C4)cc(C(F)(F)F)n2)C3)COC1 (centres unmarked) [Compound 29, 1-((2-(6-(3-((4-Methyl-4H-1,2,4-triazol-3-yl)methyl)oxetan-3-yl)-1-oxoisoindo-lin-2-yl)-6-(trifluoromethyl)pyridin-4-yl)methyl)piperidine-3-carbonitrile] | 1000 to 10000 | 80 to 300
19 | Cn1cnnc1CC1(c2ccc3c(c2)C(=O)N(c2cc(CN4CCC[C@H](O)C4)cc(C(F)(F)F)n2)C3)COC1 [Compound 30, (S)-2-(4-((3-Hydroxypiperidin-1-yl)methyl)-6-(trifluoromethyl)pyridin-2-yl)-6-(3-((4-methyl-4H-1,2,4-triazol-3-yl)methyl)oxetan-3-yl)isoindolin-1-one] | 1000 to 10000 | 300 to 5000
